In patent US8846698B2, “Pyrrolo[2,3-d]pyrimidine tropomysin-related kinase inhibitors” (Pfizer Limited, priority 2011, dated 2014) one finds IC50 data, which are given here for 32 molecules.

The target of the assay is TRKA (Homo sapiens (Human), UniProt P04629). Description: Isolated TRK enzyme assay (HTRF KinEASE-TK), TRKA. The assay is classed as biochemical. The following applies: read-out: Trka enzyme (IC50).
Chain of TRKA (P04629 441-796): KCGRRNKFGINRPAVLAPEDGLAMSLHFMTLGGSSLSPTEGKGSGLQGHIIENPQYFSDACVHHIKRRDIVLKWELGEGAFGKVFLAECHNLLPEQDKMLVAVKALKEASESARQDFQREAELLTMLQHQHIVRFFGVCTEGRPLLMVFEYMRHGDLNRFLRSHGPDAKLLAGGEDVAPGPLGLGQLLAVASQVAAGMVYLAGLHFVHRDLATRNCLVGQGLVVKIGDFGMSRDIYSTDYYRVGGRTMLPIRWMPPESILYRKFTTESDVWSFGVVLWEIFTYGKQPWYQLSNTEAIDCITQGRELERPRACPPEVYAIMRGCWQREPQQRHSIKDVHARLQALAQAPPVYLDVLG
On to `CC(C)n1cc(C(=O)c2cncc(NC(=O)Cn3cnc(Cl)c3Cl)c2)c2cncnc21` [Example 355, 2-(4,5-Dichloro-imidazol-1-yl)-N-[5-(7-isopropyl-7H-pyrrolo[2,3-d]pyrimidine-5-carbonyl)-pyridin-3-yl]-acetamide], for which the IC50 amounted to 302 nM.
As for `Cc1cc(C(F)F)n2nc(C(=O)Nc3cncc(C(=O)c4cn(C(C)C)c5ncncc45)c3)nc2n1` [Example 356, 7-Difluoromethyl-5-methyl-[1,2,4]triazolo[1,5-a]pyrimidine-2-carboxylic acid [5-(7-isopropyl-7H-pyrrolo[2,3-d]pyrimidine-5-carbonyl)-pyridin-3-yl]-amide], the figure is 56.3 nM.
Take `Cc1nc(C)n(CC(=O)Nc2cncc(C(=O)c3cn(C(C)C)c4ncncc34)c2)n1` [Example 358, 2-(3,5-Dimethyl-1,2,4-triazol-1-yl)-N-[5-(7-isopropyl-7H-pyrrolo[2,3-d]pyrimidine-5-carbonyl)-pyridin-3-yl]-acetamide]: the concentration for half-maximal inhibition (IC50) is 9800 nM.
For `Cc1nccn1CC(=O)Nc1cncc(C(=O)c2cn(C(C)C)c3ncncc23)c1` [Example 359, N-[5-(7-Isopropyl-7H-pyrrolo[2,3-d]pyrimidine-5-carbonyl)-pyridin-3-yl]-2-(2-methyl-imidazol-1-yl)-acetamide], the IC50 was found to be 9800 nM.
For the molecule `CC(C)n1cc(C(=O)c2cncc(NC(=O)Cc3cn4ccsc4n3)c2)c2cncnc21` [Example 360, 2-Imidazo[2,1-b]thiazol-6-yl-N-[5-(7-isopropyl-7H-pyrrolo[2,3-d]pyrimidine-5-carbonyl)-pyridin-3-yl]-acetamide], the IC50 was determined as 956 nM.
As for `CC(C)n1cc(C(=O)c2cncc(NC(=O)Cc3nnc(O)c4ccccc34)c2)c2cncnc21` [Example 361, 2-(4-Hydroxy-phthalazin-1-yl)-N-[5-(7-isopropyl-7H-pyrrolo[2,3-d]pyrimidine-5-carbonyl)-pyridin-3-yl]-acetamide], the figure is 7640 nM; as for `Cc1sc2nc(CC(=O)Nc3cncc(C(=O)c4cn(C(C)C)c5ncncc45)c3)cn2c1C` [Example 362, 2-(2,3-Dimethyl-imidazo[2,1-b]thiazol-6-yl)-N-[5-(7-isopropyl-7H-pyrrolo[2,3-d]pyrimidine-5-carbonyl)-pyridin-3-yl]-acetamide], 1910 nM; as for `CC(C)n1cc(C(=O)c2cncc(NC(=O)Cn3cc(C4(O)CCCC4)nn3)c2)c2cncnc21` [Example 363, 2-[4-(1-Hydroxy-cyclopentyl)-1,2,3-triazol-1-yl]-N-[5-(7-isopropyl-7H-pyrrolo[2,3-d]pyrimidine-5-carbonyl)-pyridin-3-yl]-acetamide], 1030 nM.
Take `Cc1cccc(-c2nnnn2CC(=O)Nc2cncc(C(=O)c3cn(C(C)C)c4ncncc34)c2)c1` [Example 364, N-[5-(7-Isopropyl-7H-pyrrolo[2,3-d]pyrimidine-5-carbonyl)-pyridin-3-yl]-2-(5-m-tolyl-tetrazol-1-yl)-acetamide]: the IC50 turned out to be 5040 nM.
Take `CC(C)n1cc(C(=O)c2cncc(NC(=O)Cn3cnc(-c4ccc(F)cc4)c3)c2)c2cncnc21` [Example 365, 2-[4-(4-Fluoro-phenyl)-imidazol-1-yl]-N-[5-(7-isopropyl-7H-pyrrolo[2,3-d]pyrimidine-5-carbonyl)-pyridin-3-yl]-acetamide]: the IC50 came out at 2040 nM.
As for `CC(C)c1ccnn1CC(=O)Nc1cncc(C(=O)c2cn(C(C)C)c3ncncc23)c1` [Example 366, 2-(5-Isopropyl-pyrazol-1-yl)-N-[5-(7-isopropyl-7H-pyrrolo[2,3-d]pyrimidine-5-carbonyl)-pyridin-3-yl]-acetamide], the figure is 354 nM.
`CCc1nn2cc(CC(=O)Nc3cncc(C(=O)c4cn(C(C)C)c5ncncc45)c3)nc2s1` [Example 367, 2-(2-Ethyl-imidazo[2,1-b]-1,3,4-thiadiazol-6-yl)-N-[5-(7-isopropyl-7H-pyrrolo[2,3-d]pyrimidine-5-carbonyl)-pyridin-3-yl]-acetamide]: the IC50 came out at 5640 nM.
In the case of `Cc1cn2cc(CC(=O)Nc3cncc(C(=O)c4cn(C(C)C)c5ncncc45)c3)nc2s1` [Example 368, N-[5-(7-Isopropyl-7H-pyrrolo[2,3-d]pyrimidine-5-carbonyl)-pyridin-3-yl]-2-(2-methyl-imidazo[2,1-b]thiazol-6-yl)-acetamide], the IC50 turned out to be 753 nM.
Take `Cc1nc(Cl)nn1CC(=O)Nc1cncc(C(=O)c2cn(C(C)C)c3ncncc23)c1` [Example 369, 2-(3-Chloro-5-methyl-1,2,4-triazol-1-yl)-N-[5-(7-isopropyl-7H-pyrrolo[2,3-d]pyrimidine-5-carbonyl)-pyridin-3-yl]-acetamide]: the IC50 is 3000 nM.
In the case of `CC(C)n1cc(C(=O)c2cncc(NC(=O)Cn3ccnc3-c3ccccc3)c2)c2cncnc21` [Example 370, N-[5-(7-Isopropyl-7H-pyrrolo[2,3-d]pyrimidine-5-carbonyl)-pyridin-3-yl]-2-(2-phenyl-imidazol-1-yl)-acetamide] it was 3540 nM; in that of `CC(C)n1cc(C(=O)c2cncc(NC(=O)Cc3cn4cc(Cl)sc4n3)c2)c2cncnc21` [Example 371, 2-(2-Chloro-imidazo[2,1-b]thiazol-6-yl)-N-[5-(7-isopropyl-7H-pyrrolo[2,3-d]pyrimidine-5-carbonyl)-pyridin-3-yl]-acetamide], 97 nM.
In the case of `CC(C)n1cc(C(=O)c2cncc(NC(=O)Cn3ccnc3)c2)c2cncnc21` [Example 372, 2-Imidazol-1-yl-N-[5-(7-isopropyl-7H-pyrrolo[2,3-d]pyrimidine-5-carbonyl)-pyridin-3-yl]-acetamide], the IC50 worked out at 9800 nM.
Consider `Cc1csc2nc(CC(=O)Nc3cncc(C(=O)c4cn(C(C)C)c5ncncc45)c3)cn12` [Example 373, N-[5-(7-Isopropyl-7H-pyrrolo[2,3-d]pyrimidine-5-carbonyl)-pyridin-3-yl]-2-(3-methyl-imidazo[2,1-b]thiazol-6-yl)-acetamide], for which the IC50 worked out at 813 nM.
In the case of `CC(C)n1cc(C(=O)c2cncc(NC(=O)Cc3ccn(-c4ccc(O)cc4)c3)c2)c2cncnc21` [Example 374, 2-[1-(4-Hydroxy-phenyl)-1H-pyrrol-3-yl]-N-[5-(7-isopropyl-7H-pyrrolo[2,3-d]pyrimidine-5-carbonyl)-pyridin-3-yl]-acetamide], the half-maximal inhibitory concentration (IC50) stood at 224 nM.
For the molecule `CC(C)n1cc(C(=O)c2cncc(NC(=O)Cc3cnc4ncnn4c3)c2)c2cncnc21` [Example 375, N-[5-(7-Isopropyl-7H-pyrrolo[2,3-d]pyrimidine-5-carbonyl)-pyridin-3-yl]-2-[1,2,4]triazolo[1,5-a]pyrimidin-6-yl-acetamide], the IC50 came to 9800 nM.
As for `CC(C)n1cc(C(=O)c2cncc(NC(=O)Cc3cnccn3)c2)c2cncnc21` [Example 376, N-[5-(7-Isopropyl-7H-pyrrolo[2,3-d]pyrimidine-5-carbonyl)-pyridin-3-yl]-2-pyrazin-2-yl-acetamide], the half-maximal inhibitory concentration (IC50) is 5100 nM.
In the case of `CC(C)n1cc(C(=O)c2cncc(NC(=O)Cn3cc(-c4cccc(O)c4)nn3)c2)c2cncnc21` [Example 377, 2-[4-(3-Hydroxy-phenyl)-1,2,3-triazol-1-yl]-N-[5-(7-isopropyl-7H-pyrrolo[2,3-d]pyrimidine-5-carbonyl)-pyridin-3-yl]-acetamide] it was 2630 nM.
In the case of `CC(C)n1cc(C(=O)c2cncc(NC(=O)Cn3nnnc3-c3ccccc3)c2)c2cncnc21` [Example 378, N-[5-(7-Isopropyl-7H-pyrrolo[2,3-d]pyrimidine-5-carbonyl)-pyridin-3-yl]-2-(5-phenyl-tetrazol-1-yl)-acetamide], the IC50 was found to be 716 nM.
With `CC(C)n1cc(C(=O)c2cncc(NC(=O)c3nccc4occc34)c2)c2cncnc21` [Example 380, Furo[3,2-c]pyridine-4-carboxylic acid [5-(7-isopropyl-7H-pyrrolo[2,3-d]pyrimidine-5-carbonyl)-pyridin-3-yl]-amide], the half-maximal inhibitory concentration (IC50) came out at 422 nM.
In the case of `Cc1nonc1C(=O)Nc1cncc(C(=O)c2cn(C(C)C)c3ncncc23)c1` [Example 381, 4-Methyl-furazan-3-carboxylic acid [5-(7-isopropyl-7H-pyrrolo[2,3-d]pyrimidine-5-carbonyl)-pyridin-3-yl]-amide], the IC50 turned out to be 2780 nM.
For `CC(C)n1cc(C(=O)c2cncc(NC(=O)c3nn(C)c4ccccc34)c2)c2cncnc21` [Example 382, 1-Methyl-1H-indazole-3-carboxylic acid [5-(7-isopropyl-7H-pyrrolo[2,3-d]pyrimidine-5-carbonyl)-pyridin-3-yl]-amide], the IC50 is 45.7 nM.
In the case of `CC(C)n1cc(C(=O)c2cncc(NC(=O)c3cc4ccccc4[nH]3)c2)c2cncnc21` [Example 383, 1H-Indole-2-carboxylic acid [5-(7-isopropyl-7H-pyrrolo[2,3-d]pyrimidine-5-carbonyl)-pyridin-3-yl]-amide] it was 130 nM; in that of `Cc1nc(C(F)(F)F)c(C(=O)Nc2cncc(C(=O)c3cn(C(C)C)c4ncncc34)c2)s1` [Example 384, 2-Methyl-4-trifluoromethyl-thiazole-5-carboxylic acid [5-(7-isopropyl-7H-pyrrolo[2,3-d]pyrimidine-5-carbonyl)-pyridin-3-yl]-amide], 4770 nM.
`CC(C)n1cc(C(=O)c2cncc(NC(=O)c3ncoc3C3CC3)c2)c2cncnc21` [Example 385, 5-Cyclopropyl-oxazole-4-carboxylic acid [5-(7-isopropyl-7H-pyrrolo[2,3-d]pyrimidine-5-carbonyl)-pyridin-3-yl]-amide]: the half-inhibitory concentration (IC50) is 81.6 nM.
Regarding `CC(C)n1cc(C(=O)c2cncc(NC(=O)c3cccnn3)c2)c2cncnc21` [Example 386, Pyridazine-3-carboxylic acid [5-(7-isopropyl-7H-pyrrolo[2,3-d]pyrimidine-5-carbonyl)-pyridin-3-yl]-amide], the IC50 stood at 9800 nM.
Regarding `Cc1n[nH]c(C(F)(F)F)c1C(=O)Nc1cncc(C(=O)c2cn(C(C)C)c3ncncc23)c1` [Example 387, 3-Methyl-5-trifluoromethyl-1H-pyrazole-4-carboxylic acid [5-(7-isopropyl-7H-pyrrolo[2,3-d]pyrimidine-5-carbonyl)-pyridin-3-yl]-amide], the half-maximal inhibitory concentration (IC50) came to 6880 nM.
In the case of `Cc1ccnc(C(=O)Nc2cncc(C(=O)c3cn(C(C)C)c4ncncc34)c2)c1` [Example 388, 4-Methyl-pyridine-2-carboxylic acid[5-(7-isopropyl-7H-pyrrolo[2,3-d]pyrimidine-5-carbonyl)-pyridin-3-yl]-amide], the IC50 stood at 165 nM.
